The results in this text go back to patent publication US20250288683A1, “TETRAHYDROISOQUINOLINE HETEROBIFUNCTIONAL BCL-XL DEGRADERS” (Treeline Biosciences, Inc., priority 2022, published 2025).

The target in this assay is T1, Human BCL-XL protein (N-terminal HiBiT tagged BCL-XL in HT1080 cells) (Homo sapiens, UniProt Q07817).
T1 construct: expressed in transfected cells; host or cells: HT-1080 (ATCC CCL-121), stably transduced with lentivirus pLV-UBC-N-HiBiT-BCL-XL-PGK-puro and selected with puromycin
T1 sequence (Q07817 whole entry): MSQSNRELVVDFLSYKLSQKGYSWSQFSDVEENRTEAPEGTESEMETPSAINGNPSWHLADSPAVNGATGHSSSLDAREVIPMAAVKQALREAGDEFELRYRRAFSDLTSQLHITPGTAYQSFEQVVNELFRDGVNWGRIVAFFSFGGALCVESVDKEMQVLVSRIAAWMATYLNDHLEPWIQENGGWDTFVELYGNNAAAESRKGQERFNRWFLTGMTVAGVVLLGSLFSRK
Nature of the assay: HiBiT based degradation assay. It counts as cell-based. The settings on record: HT1080 cells expressing N-terminal HiBiT tagged BCL-XL, 24 h, normalized with DMSO control. On the technique in general: The HiBiT peptide binds its large partner to form an active luciferase.
Regarding `Cc1ncsc1-c1ccc([C@@H](NC(=O)[C@@H]2C[C@@H](O)CN2C(=O)[C@@H](NC(=O)C[C@H]2CC[C@H](Oc3cccc(-c4ccc(N5CCc6cccc(C(=O)Nc7nc8ccccc8s7)c6C5)nc4C(=O)O)c3C)CC2)C(C)(C)C)C(F)(F)F)cc1` [Compound 125a, 6-(8-(benzo[d]thiazol-2-ylcarbamoyl)-3,4-dihydroisoquinolin-2 (1H)-yl)-3-(3-(((1S,4r)-4-(2-(((S)-1-((2S,4R)-4-hydroxy-2-(((R)-2,2,2-trifluoro-1-(4-(4-methylthiazol-5-yl)phenyl)ethyl)carbamoyl)pyrrolidin-1-yl)-3,3-dimethyl-1-oxobutan-2-yl)amino)-2-oxoethyl)cyclohexyl)oxy)-2-methylphenyl)picolinic acid], the “Ymin (24 h)” value was “A (Ymin < 50%)”.
The result for `Cc1ncsc1-c1ccc([C@H](C)NC(=O)[C@@H]2C[C@@H](O)CN2C(=O)[C@@H](n2cc(CCCCCOc3cccc(-c4ccc(N5CCc6cccc(C(=O)Nc7nc8ccccc8s7)c6C5)nc4C(=O)O)c3C)nn2)C(C)(C)C)cc1` [Compound 126a, 6-[8-(1,3-benzothiazol-2-ylcarbamoyl)-3,4-dihydro-1H-isoquinolin-2-yl]-3-[3-[5-[1-[(1S)-1-[(2S,4R)-4-hydroxy-2-[[(1S)-1-[4-(4-methylthiazol-5-yl)phenyl]ethyl]carbamoyl]pyrrolidine-1-carbonyl]-2,2-dimethyl-propyl]triazol-4-yl]pentoxy]-2-methyl-phenyl]pyridine-2-carboxylic acid] reads “A (Ymin < 50%)”.
In the case of `Cc1ncsc1-c1ccc([C@H](C)NC(=O)[C@@H]2C[C@@H](O)CN2C(=O)[C@@H](NC(=O)CN2CCC(COc3cccc(-c4ccc(N5CCc6cccc(C(=O)Nc7nc8ccccc8s7)c6C5)nc4C(=O)O)c3C)CC2)C(C)(C)C)cc1` [Compound 127a, 6-[8-(1,3-benzothiazol-2-ylcarbamoyl)-3,4-dihydro-1H-isoquinolin-2-yl]-3-[3-[[1-[2-[[(1S)-1-[(2S,4R)-4-hydroxy-2-[[(1S)-1-[4-(4-methylthiazol-5-yl)phenyl]ethyl]carbamoyl]pyrrolidine-1-carbonyl]-2,2-dimethyl-propyl]amino]-2-oxo-ethyl]-4-piperidyl]methoxy]-2-methyl-phenyl]pyridine-2-carboxylic acid], the “Ymin (24 h)” value was “A (Ymin < 50%)”.
The result for `Cc1ncsc1-c1ccc([C@H](C)NC(=O)[C@@H]2C[C@@H](O)CN2C(=O)[C@@H](n2cc(CCc3ccc(Oc4cccc(-c5ccc(N6CCc7cccc(C(=O)Nc8nc9ccccc9s8)c7C6)nc5C(=O)O)c4C)cc3)nn2)C(C)(C)C)cc1` [Compound 132a, 6-(8-(benzo[d]thiazol-2-ylcarbamoyl)-3,4-dihydroisoquinolin-2 (1H)-yl)-3-(3-(4-(2-(1-((S)-1-((2S,4R)-4-hydroxy-2-(((S)-1-(4-(4-methylthiazol-5-yl)phenyl)ethyl)carbamoyl)pyrrolidin-1-yl)-3,3-dimethyl-1-oxobutan-2-yl)-1H-1,2,3-triazol-4-yl)ethyl)phenoxy)-2-methylphenyl)picolinic acid] reads “B (50% ≤ Ymin < 70%)”; that for `Cc1ncsc1-c1ccc([C@H](C)NC(=O)[C@@H]2C[C@@H](O)CN2C(=O)[C@@H](NC(=O)C(C)(C)CCc2ccc(Oc3cccc(-c4ccc(N5CCc6cccc(C(=O)Nc7nc8ccccc8s7)c6C5)nc4C(=O)O)c3C)cc2)C(C)(C)C)cc1` [Compound 133a, 6-[8-(1,3-benzothiazol-2-ylcarbamoyl)-3,4-dihydro-1H-isoquinolin-2-yl]-3-[3-[4-[4-[[(1S)-1-[(2S,4R)-4-hydroxy-2-[[(1S)-1-[4-(4-methylthiazol-5-yl)phenyl]ethyl]carbamoyl]pyrrolidine-1-carbonyl]-2,2-dimethyl-propyl]amino]-3,3-dimethyl-4-oxo-butyl]phenoxy]-2-methyl-phenyl]pyridine-2-carboxylic acid], “B (50% ≤ Ymin < 70%)”; that for `Cc1ncsc1-c1ccc(CNC(=O)[C@@H]2C[C@@H](O)CN2C(=O)[C@@H](NC(=O)C2(F)CC2)C(C)(C)SCCCCCCCCOc2cccc(-c3ccc(N4CCc5cccc(C(=O)Nc6nc7ccccc7s6)c5C4)nc3C(=O)O)c2C)cc1` [Compound 136a, 6-(8-(benzo[d]thiazol-2-ylcarbamoyl)-3,4-dihydroisoquinolin-2 (1H)-yl)-3-(3-((8-(((R)-3-(1-fluorocyclopropane-1-carboxamido)-4-((2S,4R)-4-hydroxy-2-((4-(4-methylthiazol-5-yl)benzyl)carbamoyl)pyrrolidin-1-yl)-2-methyl-4-oxobutan-2-yl)thio)octyl)oxy)-2-methylphenyl)picolinic acid], “A (Ymin < 50%)”.
With `Cc1ncsc1-c1ccc(CNC(=O)[C@@H]2C[C@@H](O)CN2C(=O)[C@@H](NC(=O)C2(F)CC2)C(C)(C)SCCCCCCCCCCOc2cccc(-c3ccc(N4CCc5cccc(C(=O)Nc6nc7ccccc7s6)c5C4)nc3C(=O)O)c2C)cc1` [Compound 137a, 6-(8-(benzo[d]thiazol-2-ylcarbamoyl)-3,4-dihydroisoquinolin-2 (1H)-yl)-3-(3-((10-(((R)-3-(1-fluorocyclopropane-1-carboxamido)-4-((2S,4R)-4-hydroxy-2-((4-(4-methylthiazol-5-yl)benzyl)carbamoyl)pyrrolidin-1-yl)-2-methyl-4-oxobutan-2-yl)thio)decyl)oxy)-2-methylphenyl)picolinic acid] the entry was “B (50% ≤ Ymin < 70%)”; with `Cc1ncsc1-c1ccc([C@H](C)NC(=O)[C@@H]2C[C@@H](O)CN2C(=O)[C@@H](NC(=O)C(F)(F)CCc2ccc(Oc3cccc(-c4ccc(N5CCc6cccc(C(=O)Nc7nc8ccccc8s7)c6C5)nc4C(=O)O)c3C)cc2)C(C)(C)C)cc1` [Compound 139a], “A (Ymin < 50%)”.
The result for `Cc1ncsc1-c1ccc(CNC(=O)[C@@H]2C[C@@H](O)CN2C(=O)[C@@H](NC(=O)C2(F)CC2)C(C)(C)SCCCCCCCOc2cccc(-c3ccc(N4CCc5cccc(C(=O)Nc6nc7ccccc7s6)c5C4)nc3C(=O)O)c2C)cc1` [Compound 140a] reads “B (50% ≤ Ymin < 70%)”; that for `Cc1ncsc1-c1ccc(CNC(=O)[C@@H]2C[C@@H](O)CN2C(=O)[C@@H](NC(=O)C2(F)CC2)C(C)(C)SCCCCCCCCCOc2cccc(-c3ccc(N4CCc5cccc(C(=O)Nc6nc7ccccc7s6)c5C4)nc3C(=O)O)c2C)cc1` [Compound 141a], “A (Ymin < 50%)”; that for `Cc1ncsc1-c1ccc(CNC(=O)[C@@H]2C[C@@H](O)CN2C(=O)[C@@H](NC(=O)C2(F)CC2)C(C)(C)SCCCCCCCCCCCCOc2cccc(-c3ccc(N4CCc5cccc(C(=O)Nc6nc7ccccc7s6)c5C4)nc3C(=O)O)c2C)cc1` [Compound 142a], “B (50% ≤ Ymin < 70%)”.
Turning to `Cc1ncsc1-c1ccc([C@H](C)NC(=O)[C@@H]2C[C@@H](O)CN2C(=O)[C@@H](NC(=O)C(F)(F)[C@H]2CC[C@H](Oc3cccc(-c4ccc(N5CCc6cccc(C(=O)Nc7nc8ccccc8s7)c6C5)nc4C(=O)O)c3C)CC2)C(C)(C)C)cc1` [Compound 144a], the “Ymin (24 h)” value was “A (Ymin < 50%)”.
For `Cc1ncsc1-c1ccc([C@H](C)NC(=O)[C@@H]2C[C@@H](O)CN2C(=O)[C@@H](NC(=O)C(F)(F)[C@H]2CC[C@@H](Oc3cccc(-c4ccc(N5CCc6cccc(C(=O)Nc7nc8ccccc8s7)c6C5)nc4C(=O)O)c3C)CC2)C(C)(C)C)cc1` [Compound 144b], the “Ymin (24 h)” value is given as “C (Ymin ≥ 70%)”.
